Measurements: patent US20050153985A1, “Methods of treating acute inflammation in animals with p38 map kinase inhibitors” (priority 2003, published 2005)
Entries after “also recorded” stand apart in the source; their conditions may differ.

Test system: E. coli (MacDonald 487) induced mastitis
Test: E. coli induced mastitis in lactating cows, treatment 13 hours after intramammary challenge
Type: in vivo, lactating Holstein cows
Details: 10 mg/kg IV; for mean E. coli colony counts in milk after treatment: 11-168 hours, FIG. 10; for mean E. coli colony counts in milk after treatment / milk somatic cell count (SCC) / mean whey PGE2 levels after treatment: compared to infected; for mean E. coli colony counts in milk after treatment / milk clinical scores / gland clinical scores: non-medicated controls; for whey PGE2 levels at 11 hours after treatment: relative to level at time 0; for milk produced during the 13 days after treatment: based on mean daily milk production values from FIG. 2, infected, non-medicated cow 365 lbs; for cumulative clinical scores: compared to controls, FIG. 5; for milk production loss associated with mastitis following treatment: compared to infected cows treated with vehicle, FIG. 2; for milk somatic cell count (SCC) / mean whey PGE2 levels after treatment: non-medicated control cows; for milk somatic cell count (SCC): FIG. 6; for mean whey PGE2 levels after treatment: FIG. 9; for milk produced during the 13 days after treatment compared with infected, non-medicated cow: comparison in words; for total WBC numbers (peripheral blood) / total PMN numbers (peripheral blood): data analyzed for 0-72 hours, vs controls; for total WBC numbers (peripheral blood): FIG. 7; for total PMN numbers (peripheral blood): FIG. 8; for milk clinical scores / gland clinical scores: vs infected; for milk clinical scores: FIG. 3; for gland clinical scores: FIG. 4
Text: Thirty-three lactating Holstein cows were randomly allotted to 5 treatment groups blocked by milk production and days in milk. Milk and blood samples and temperature data were collected at the morning milking on day −1. One normal quarter was selected from each cow based on clinical scores and California Mastitis Test (CMT) results performed at morning milking on day −1. After the evening milking on […], selected quarters were infused with approximately 30 cfu of E. coli (MacDonald 487). Milk and blood samples and temperature data were collected prior to treatment at the morning milking on day 0. Cows were treated after the morning milking on day 0 according to the study design. After treatment, milk and blood samples and temperature data were collected at 11, 24, 35, 48, 72, 144, 168, 192, and 216 hours. Clinical scores of infused quarters and milk production were assessed at each milking. Milk samples were analyzed for culture (E. coli), SCC, TNF-α and PGE2 and blood leukograms were determined. [table] Assessment of test article efficacy was determined based upon a comparison of the treatment effect on each variable versus the challenged, non-medicated group. Data were analyzed using the MIXED procedure of PC-SAS version 6.12. The model included treatment, time and their interaction. Covariance within cows across time was modeled using the Repeated statement analysis with a […] covariance structure to account for unequally spaced sampling times. Tests for significance (P≦0.10) were based upon the main treatment effect compared with the challenged, non-medicated group. The P value of ≦0.10 was selected based on the number of animals per treatment group and the conservative nature of the SAS procedure. […] In all, 27 of 27 quarters challenged developed clinical mastitis.

| Structure (SMILES) | mean E. coli colony counts in milk after treatment | whey PGE2 levels at 11 hours after treatment | milk produced during the 13 days after treatment | cumulative clinical scores | milk production loss associated with mastitis following treatment | milk somatic cell count (SCC) | mean whey PGE2 levels after treatment | milk produced during the 13 days after treatment compared with infected, non-medicated cow | total WBC numbers (peripheral blood) | total PMN numbers (peripheral blood) | milk clinical scores | gland clinical scores |
| --- | --- | --- | --- | --- | --- | --- | --- | --- | --- | --- | --- | --- |
| Nc1nccc(-c2c(-c3ccc(F)cc3)ncn2C2CCNCC2)n1 [MAPKi #1] | significantly decreased; also recorded: Significant improvement | decline | 847 lbs | significantly lower; also recorded: Significant improvement | significantly less milk production loss; also recorded: Significant improvement | trend towards lower SCC | significant reduction; also recorded: Significant improvement | more than twice as much milk | returned to pre-challenge levels significantly faster; also recorded: Significant improvement | returned to pre-challenge levels significantly faster | significantly improved; also recorded: Significant improvement | Significantly improved; also recorded: Significant improvement |
| CC(C)n1c(=O)n(C)c2cc(-c3[nH]c(-c4cnccn4)nc3-c3ccc(F)cc3)ccc21 [MAPKi #2] | decline in milk E. coli numbers compared to controls but the difference was not significant; also recorded: reduced | remained at the same level | 689 lbs | significantly lower; also recorded: Significant reductions |  |  | significant reduction | produced more milk than control cows | returned to pre-challenge levels significantly faster | returned to pre-challenge levels significantly faster | significantly improved; also recorded: Significant reductions | Significantly improved; also recorded: Significant reductions |
| CC(=O)Nc1nc(-c2cccc(C)c2)c(-c2ccc3c(c2)n(C)c(=O)n3CC(C)C)[nH]1 [MAPKi #3] | did not show a decline | continue to rise | 366 lbs |  | no trend for improved | trend towards lower SCC | significant reduction; also recorded: significantly reduced | produced the same amount of milk as infected, non-medicated control cows |  |  | no trend for improved | Significantly improved |
